Series [1] has as its target T1, CRTh2 receptor (Homo sapiens, UniProt Q9Y5Y4).
T1 construct: expressed in transfected cells
T1 sequence (Q9Y5Y4 1-395): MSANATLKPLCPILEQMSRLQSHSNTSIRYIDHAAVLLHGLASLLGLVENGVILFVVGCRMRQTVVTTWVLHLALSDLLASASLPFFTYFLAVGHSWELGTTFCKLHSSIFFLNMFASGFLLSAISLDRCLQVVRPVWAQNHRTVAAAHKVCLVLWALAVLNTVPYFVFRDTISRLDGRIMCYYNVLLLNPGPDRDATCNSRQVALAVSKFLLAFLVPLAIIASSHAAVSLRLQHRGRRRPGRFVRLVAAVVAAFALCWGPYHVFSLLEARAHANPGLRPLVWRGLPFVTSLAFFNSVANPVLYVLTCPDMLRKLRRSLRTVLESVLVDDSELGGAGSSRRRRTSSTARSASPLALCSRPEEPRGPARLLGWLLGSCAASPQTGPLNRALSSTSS
Put plainly: Intracellular calcium mobilisation (FLIPR, inhibition of PGD2 response) in HEK-hrCRTh2-Gα16 cells. Type of series: cell-based. The note with it: antagonism of 2×p[A]50 PGD2, Cheng-Prusoff analysis, read-out: pA2 (converted). On the procedure: Intracellular Calcium Mobilisation
Human Embryonic Kidney Cells co-transfected with both the CRTh2 receptor and Gα16 G-protein (HEK-hrCRTh2-Gα16) are routinely cultured as monolayers in Dulbecco's Modified Eagles Medium (DMEM; Sigma) supplemented with 10% (v:v) heat inactivated foetal bovine serum (New Zealand sourced; Hyclone), 1% (v:v) non-essential amino acids (Gibco BRL), 1% (v:v) penicillin/streptomycin (Gibco BRL), 2 mM L-glutamine (Gibco BRL) and grown under 1 mg/ml (v:v) Geneticin (Gibco BRL) antibiotic selection. Approximately 24 hours prior to the assay the cells are plated at a seeding density of 100,000 cells/well in 100 μl growth media into black walled 96 well Poly-D-Lysine coated plates (Becton Dickinson), with clear bottoms to allow cell inspection and fluorescence measurements from the bottom of each well. All cultures are maintained under standard tissue culture conditions (37° C. in a humidified atmosphere of 5% CO2).
To enable changes in intracellular calcium levels to be measured in HEK-hrCRTh2-Gα16 cells fluo-3AM is utilised as the fluorescent calcium indicator. A dye loading buffer is prepared which consists of a final concentration of 5 μM Fluo-3AM fluorescent cytoplasmic calcium indicator dye (Tef Labs), 2.2 μl/ml Pluronic F127 (Molecular Probes) to promote dye uptake, and 0.5 mM brilliant black (Sigma) to reduce background fluorescence in Balanced Salt Solution (BSS; 125 mM NaCl, 5.4mM KCl, 16.2 mM NaHCO3, 0.8 mM MgCl2, 1 mM CaCl2, 20 mM HEPES, 1 mM NaH2PO4, 5.5 mM D-(+)-Glucose, 0.1% BSA and pH 7.4 with NaOH). […]
Test compounds are made up at a stock concentration of 10 mM in DMSO. The compounds to be evaluated are then prepared, by serial dilution in BSS buffer, to the required concentrations for inhibition dose response curves to be constructed. […] This allows the potency agonist ([A]50) value to be determined for the HEK-hrCRTh2-Gα16 cells on any given day. Once the p[A]50 for PGD2 has been determined a separate assay plate containing 2×p[A]50 of PGD2 is prepared as the 2nd addition plate (or agonist plate). […]

With `COc1ccc2c(c1)c(CC(=O)O)c(C)n2-c1cc(C)nc(-c2ccccc2)n1` [Example 1, [5-methoxy-2-methyl-1-(6-methyl-2-phenylpyrimidin4-yl)-1H-indol-3-yl]acetic acid], the melting point fell in the range of 160 to 162 °C. In series [1], the Kb is 316 nM. In the same order, the values of `COc1ccc2c(c1)c(CC(=O)O)c(C)n2-c1nc2ccccc2s1` [Example 2, [1-(1,3-benzothiazol-2-yl)-5-methoxy-2-methyl-1H-indol-3-yl]acetic acid] are 158 to 160 °C and 316 nM. Compound `COc1ccc2c(c1)c(CC(=O)O)c(C)n2-c1cc(Oc2ccccc2)nc(Oc2ccccc2)n1` [Example 3, [1-(2,6-diphenoxypyrimidin-4-yl)-5-methoxy-2-methyl-1H-indol-3-yl]acetic acid] showed a melting point of 168 to 170 °C.

For the compound `Cc1ccc2c(c1)c(CC(=O)O)c(C)n2-c1cc(Oc2ccccc2)nc(Oc2ccccc2)n1` [[1-(2,6-diphenoxypyrimidin-4-yl)-2,5-dimethyl-1H-indol-3-yl]acetic acid], the Kb in series [1] was 158 nM.

By melting point is commonly meant the temperature of the solid-liquid transition.

The values are drawn from US20050101612A1, “Use of indole-3-acetic acids in the treatment of asthma, copd and other diseases” (priority 2002, published 2005).
